Measured values from US8729031B2, “Compounds” (priority 2009, dated 2014).
In brackets after ≈: the same amount, converted by molar mass.

Columns and labels:
S. aureus R33 (MRSA) = format: cell-based; settings: for MIC against Stapholococcus aureus strain R33: strain R33, text b20
Procedure: (§1) Susceptibility testing with the exception of Streptococcus pneumoniae was performed by two-fold serial dilutions in Mueller Hinton Broth supplemented with 50 μg/mL Ca^2+. Susceptibility testing of S. pneumoniae was performed by two-fold serial dilutions in Brain-Heart-Infusion Broth supplemented with 50 μg/mL Ca^2+.

S. aureus SH1000 = format: cell-based; settings: for MIC against Stapholococcus aureus strain SH1000: strain SH1000, text b20
Procedure: as §1

[1] = tested on: Staphylococcus aureus methicillin resistant ATCC 33591; assay: Mouse bacteraemia model; format: in vivo
Procedure: Groups of 6 male CD-1 (Crl.) derived mice weighing 24±2 g were used. Mice were inoculated intraperitoneally (IP) with an LD90-100 of Staphylococcus aureus methicillin resistant ATCC 33591 (1.1×10^7CFU/mouse) in 0.5 mL of BHI broth containing 5% mucin. The compound of example 1a and vancomycin were dissolved in 15% HPbetaCD/4.4% glucose/0.5 mM KH2PO4, pH 5.0 at doses of 1, 3, 5, 10 and 20 mg/Kg and were administered subcutaneously (SC) to test animals at 0, 2 and 24 hour(s) after bacteria challenge. The dosing volume was 5 mL/Kg. Mortality was recorded once daily for 7 days. The ED50 for each compound was determined by nonlinear regression.

[2] = tested on: Methicillin Resistant Staphylococcus aureus (MRSA, ATCC 33591); assay: Neutropaenic mouse thigh infection model; format: in vivo; settings: for antimicrobial effect in thigh infection: IV at 5, 10, 20, 30 and 40 mg/Kg×2
Procedure: In vivo efficacy of compounds of the present invention in the treatment of bacterial tissue infections was evaluated using a neutropaenic mouse thigh model. Groups of 6 male ICR mice weighing 24±2 g were used. Test animals were immunosuppressed by 2 intraperitoneal injections of cyclophosphamide, the first at 150 mg/Kg 4 days before infection (day-4) and the second at 100 mg/Kg 1 day before infection (day-1). On day 0, individual animals were inoculated intramuscularly (IM) into the right thigh of test animals with 1.15×10^5 CFU/mouse of Methicillin Resistant Staphylococcus aureus (MRSA, ATCC 33591) suspended in 100 μL of sterile PBS, pH 7.4. Vehicle and test substances were administered intravenously (IV) at a dose volume of 8 mL/Kg, 2 and 14 hours after thigh infection. Example 1a (Compound I) and vancomycin were dissolved in 15% hydroxypropyl-β-cyclodextrin/4.4% glucose/1 mM potassium phosphate buffer, pH 7.0 and administered at doses of 5, 10, 20, 30 and 40 mg/Kg. At 26 hours after inoculation, muscle of the right thigh of each test mouse was harvested. From an additional group with no treatment, muscle of the right thigh was harvested at 2 hours after inoculation for the basal CFU determination. The removed muscle tissues were then homogenized in 3-4 mL of PBS, pH 7.4 with a ceramic mortar. Homogenates of 0.1 mL were used for serial 10-fold dilutions and plated on Mueller Hinton broth in 1.5% Bacto agar for CFU determination.

[3] = In vivo plasma half-life in mice; settings: mouse, 29.76 mg/kg, male CD-1 mice, IV, 9.3 mL/Kg of 3.2 mg/mL solution
Procedure: The in vivo half-life of Example 1a in mice was determined by measurement of its plasma concentrations at various time points following IV dosing. 18 male CD-1 mice aged 7-9 weeks were dosed IV with a 9.3 mL/Kg dose of a 3.2 mg/mL solution of Example 1a in 15% hydroxyl-propyl-β-cyclodextrin/4.4% glucose/1 mM potassium phosphate (pH=7.6). Plasma samples were obtained at 10, 20, 30, 60, 120 and 240 min post-dose, sampling from 3 animals at each time point. Concentrations of Example 1a in plasma were determined by LC-MS quantification.

| Compound | MIC in μg/mL against strain S. aureus R33 (MRSA) (S. aureus R33 (MRSA)) | MIC in μg/mL against strain S. aureus SH1000 (S. aureus SH1000) | other results |
| --- | --- | --- | --- |
| CC[C@H](C)[C@@H]1NC(=O)[C@@H]2NC(=O)[C@H](CC(C)C)NC(=O)[C@H](NC(=O)[C@@H]3CSC[C@@H](N)C(=O)N[C@@H](CO)C(=O)NCC(=O)N[C@@H](Cc4c[nH]c5ccccc45)C(=O)N[C@@H](C(C)C)C(=O)N3)[C@H](C)SC[C@H](NC(=O)[C@H](CCC(=O)O)NC1=O)C(=O)NCC(=O)N[C@H]1C(=O)N[C@@H](CC(C)C)C(=O)N[C@@H](C(C)C)C(=O)N[C@@H](CS[C@H]2C)C(=O)N[C@@H](C)C(=O)N[C@H](C(=O)NCCCCCCNS(=O)(=O)c2c(Cl)cc(Cl)cc2Cl)CS[C@H]1C [Example 27, Deoxyactagardine B [6-(2′,4′,6′-trichlorobenzenesulfonamido)hexylamine]monocarboxamide] | 8 µg/mL (≈ 3.61 µM) | 8 µg/mL (≈ 3.61 µM) |  |
| deoxyactagardine B N-[1-(1-methyl-4-piperidinyl)piperazine]monocarboxamide [reference compound] |  |  | MIC against Stapholococcus aureus strain R33 (S. aureus R33 (MRSA)): approximately 64 μL/mL; MIC against Stapholococcus aureus strain SH1000 (S. aureus SH1000): approximately 64 μL/mL |
| deoxyactagardine B N-[1-(3-dimethylamino propyl)piperazine]monocarboxamide [reference compound] |  |  | MIC against Stapholococcus aureus strain R33 (S. aureus R33 (MRSA)): approximately 64 μL/mL; MIC against Stapholococcus aureus strain SH1000 (S. aureus SH1000): approximately 64 μL/mL |
| CC[C@H](C)[C@@H]1NC(=O)[C@@H]2NC(=O)[C@H](CC(C)C)NC(=O)[C@H](NC(=O)[C@@H]3CSC[C@@H](N)C(=O)N[C@@H](CO)C(=O)NCC(=O)N[C@@H](Cc4c[nH]c5ccccc45)C(=O)N[C@@H](C(C)C)C(=O)N3)[C@H](C)SC[C@H](NC(=O)[C@H](CCC(=O)O)NC1=O)C(=O)NCC(=O)N[C@H]1C(=O)N[C@@H](CC(C)C)C(=O)N[C@@H](C(C)C)C(=O)N[C@@H](CS[C@H]2C)C(=O)N[C@@H](C)C(=O)N[C@H](C(=O)NCc2ccc(F)cc2F)CS[C@H]1C [Example 15, Deoxyactagardine B (2,4-difluorobenzylamine)monocarboxamide] | 8 µg/mL (≈ 4 µM) | 8 µg/mL (≈ 4 µM) |  |
| Deoxyactagardine B [3-(2′-aminomethyl-4′-(2″,4″-dichlorophenyl)-furanyl)propylamine]monocarboxamide [Example 32] | ≦4 μg/mL | ≦4 μg/mL |  |
| CC[C@H](C)[C@@H]1NC(=O)[C@@H]2NC(=O)[C@H](CC(C)C)NC(=O)[C@H](NC(=O)[C@@H]3CSC[C@@H](N)C(=O)N[C@@H](CO)C(=O)NCC(=O)N[C@@H](Cc4c[nH]c5ccccc45)C(=O)N[C@@H](C(C)C)C(=O)N3)[C@H](C)SC[C@H](NC(=O)[C@H](CCC(=O)O)NC1=O)C(=O)NCC(=O)N[C@H]1C(=O)N[C@@H](CC(C)C)C(=O)N[C@@H](C(C)C)C(=O)N[C@@H](CS[C@H]2C)C(=O)N[C@@H](C)C(=O)N[C@H](C(=O)NCCCCCCNCc2cc(Cl)cc(Cl)c2)CS[C@H]1C [Example 30, Deoxyactagardine B [6-(3′,5′-dichlorobenzylamino)-hexylamine]monocarboxamide] | 8 µg/mL (≈ 3.75 µM) | 4 µg/mL (≈ 1.88 µM) |  |
| CN[C@H](CC(C)C)C(=O)N[C@H]1C(=O)N[C@@H](CC(N)=O)C(=O)N[C@H]2C(=O)N[C@H]3C(=O)N[C@H](C(=O)N[C@H](C(=O)O)c4cc(O)cc(O)c4-c4cc3ccc4O)[C@H](O)c3ccc(c(Cl)c3)Oc3cc2cc(c3O[C@@H]2O[C@H](CO)[C@@H](O)[C@H](O)[C@H]2O[C@H]2C[C@](C)(N)[C@H](O)[C@H](C)O2)Oc2ccc(cc2Cl)[C@H]1O [vancomycin, reference compound] |  |  | antimicrobial effect against S. aureus (MR) in mice ([1]; 3, 5, 10 and 20 mg/Kg×3, SC): significant antimicrobial effect; ED50 ([1]; Staphylococcus aureus, ATCC33591, SC at 0, 2 and 24 h after challenge, mortality over 7 days, nonlinear regression, read-out: estimated ED50): 3 mg/kg; antimicrobial effect in thigh infection [2]: significant antimicrobial effect; reductions of CFU/g ([2]; IV ×2 (2 and 14 h), 30 mg/kg and above, thigh muscle at 26 h): > 100 fold |
| Deoxyactagardine B (3-chlorobenzylamine)monocarboxamide [Example 24] | ≦4 μg/mL | ≦4 μg/mL |  |
| Deoxyactagardine B (4-chlorobenzylamine)monocarboxamide [Example 25] | ≦4 μg/mL | ≦4 μg/mL |  |
| Deoxyactagardine B 19-[4-(4′-chlorophenyl)piperazine]monocarboxamide [Example 4] | ≦4 μg/mL | ≦4 μg/mL |  |
| Deoxyactagardine B (3,4-dichlorobenzylamine)monocarboxamide [Example 22] | ≦4 μg/mL | ≦4 μg/mL |  |
| CC[C@H](C)[C@@H]1NC(=O)[C@@H]2NC(=O)[C@H](CC(C)C)NC(=O)[C@H](NC(=O)[C@@H]3CSC[C@@H](N)C(=O)N[C@@H](CO)C(=O)NCC(=O)N[C@@H](Cc4c[nH]c5ccccc45)C(=O)N[C@@H](C(C)C)C(=O)N3)[C@H](C)SC[C@H](NC(=O)[C@H](CCC(=O)O)NC1=O)C(=O)NCC(=O)N[C@H]1C(=O)N[C@@H](CC(C)C)C(=O)N[C@@H](C(C)C)C(=O)N[C@@H](CS[C@H]2C)C(=O)N[C@@H](C)C(=O)N[C@H](C(=O)NCc2cc(Cl)cc(Cl)c2)CS[C@H]1C [Example 1a] |  |  | survival rate ([1]; 3 mg/Kg, SC): 100%; antimicrobial effect against S. aureus (MR) in mice ([1]; 3, 5, 10 and 20 mg/Kg×3, SC): significant antimicrobial effect; increase in survival rate ([1]; 3, 5, 10 and 20 mg/Kg×3, SC): at least 50%; estimated ED50 ([1]; SC at 0, 2 and 24 h after challenge, mortality over 7 days, nonlinear regression): 1.07 mg/kg; antimicrobial effect in thigh infection [2]: significant antimicrobial effect; reduction in CFU/g ([2]; IV ×2 (2 and 14 h), 10 mg/kg and above, thigh muscle at 26 h): > 1000 fold; half-life [3]: ~2 h |
| CC[C@H](C)[C@@H]1NC(=O)[C@@H]2NC(=O)[C@H](CC(C)C)NC(=O)[C@H](NC(=O)[C@@H]3CSC[C@@H](N)C(=O)N[C@@H](CO)C(=O)NCC(=O)N[C@@H](Cc4c[nH]c5ccccc45)C(=O)N[C@@H](C(C)C)C(=O)N3)[C@H](C)SC[C@H](NC(=O)[C@H](CCC(=O)O)NC1=O)C(=O)NCC(=O)N[C@H]1C(=O)N[C@@H](CC(C)C)C(=O)N[C@@H](C(C)C)C(=O)N[C@@H](CS[C@H]2C)C(=O)N[C@@H](C)C(=O)N[C@H](C(=O)NCCCNCCCNCc2cc(Cl)cc(Cl)c2)CS[C@H]1C [Example 20, Deoxyactagardine B [3-(3′-(3″,5″-dichlorobenzylamino)propylamino)propylamine]monocarboxamide] | 8 µg/mL (≈ 3.73 µM) | 8 µg/mL (≈ 3.73 µM) |  |
| Deoxyactagardine B [3-(2′-aminomethyl-4′-(2″-nitro-4″-chlorophenyl)-furanyl)propylamine]monocarboxamide [Example 33] | ≦4 μg/mL | ≦4 μg/mL |  |
